Source: BindingDB's records for doi:10.1021/jm00111a037 (University of Tokushima, 1991)

How the values were obtained:
[1] = Inhibition of arachidonate 5-lipoxygenase purified from porcine leukocytes.
[2] = The compound was tested for the inhibition of Arachidonate 5-lipoxygenase purified from porcine leukocytes.

Row | IC50 [1] | IC50 [2] | SMILES
1 | 115 nM |  | CCCCCCCCCCCCCCc1c(-c2ccc(O)c(O)c2)oc2c(OC)c(OC)cc(OC)c2c1=O
2 | 126 nM |  | CCCCCCOc1c(-c2ccc(O)c(O)c2)oc2cc(OC)c(OC)c(OC)c2c1=O
3 | 58 nM |  | CCCCCCc1c(-c2ccc(O)c(O)c2)oc2c(OC)c(OC)cc(OC)c2c1=O
4 | 86 nM |  | CCCCCCCCCCc1c(-c2ccc(O)c(O)c2)oc2c(OC)c(OC)cc(OC)c2c1=O
5 | 62 nM |  | CCCCCCCCc1c(-c2ccc(O)c(O)c2)oc2c(OC)c(OC)cc(OC)c2c1=O
6 | 105 nM |  | CCCCCCCCCCCCc1c(-c2ccc(O)c(O)c2)oc2c(OC)c(OC)cc(OC)c2c1=O
7 |  | 190 nM | CCCCCCCCCCc1c(-c2ccc(O)c(O)c2)oc2cc(OC)c(OC)c(OC)c2c1=O
8 | 135 nM |  | CCCCCCCCCCc1c(-c2ccc(O)c(O)c2)oc2c(OC)c(OC)cc(O)c2c1=O
9 | 280 nM |  | CCCCCCOc1c(OC)c(OC)cc2oc(-c3ccc(O)c(O)c3)c(OC)c(=O)c12
10 | 1350 nM |  | CCCCCCOc1c(OC)c(OC)cc2oc(-c3ccc(O)c(O)c3)c(O)c(=O)c12
11 | 950 nM |  | CCCCCCCCCCCCCCCCc1c(-c2ccc(O)c(O)c2)oc2cc(OC)c(OC)c(OC)c2c1=O
12 |  | 210 nM | CCCCCCCCCCCCc1c(-c2ccc(O)c(O)c2)oc2cc(OC)c(OC)c(=O)c-2c1O
13 |  | 240 nM | CCCCCCCCCCCCCCc1c(-c2ccc(O)c(O)c2)oc2cc(OC)c(OC)c(OC)c2c1=O
14 | 480 nM |  | COc1cc2oc(-c3ccc(O)c(O)c3)c(C)c(=O)c2c(O)c1OC
15 | 300 nM |  | COc1cc(O)c2c(=O)c(C)c(-c3ccc(O)c(O)c3)oc2c1OC
16 |  | 340 nM | CCCCCCCCCCCCc1c(-c2ccc(O)c(O)c2)oc2c(OC)c(OC)cc(O)c2c1=O
17 | 1500 nM |  | CCCCCCCCCCCCCCCCc1c(-c2ccc(O)c(O)c2)oc2c(OC)c(OC)cc(O)c2c1=O
18 |  | 250 nM | CCCCCCCCc1c(-c2ccc(O)c(O)c2)oc2cc(OC)c(OC)c(OC)c2c1=O
19 |  | 175 nM | CCCCCCCCCCCCc1c(-c2ccc(O)c(O)c2)oc2cc(OC)c(OC)c(OC)c2c1=O
20 | 1250 nM |  | CCCCCCCCCCCCCCCCc1c(-c2ccc(O)c(O)c2)oc2cc(OC)c(OC)c(=O)c-2c1O
21 | 500 nM |  | CCCCCCCCCCCCCCCCc1c(-c2ccc(O)c(O)c2)oc2c(OC)c(OC)cc(OC)c2c1=O
22 | 100 nM |  | CCCCc1c(-c2ccc(O)c(O)c2)oc2c(OC)c(OC)cc(OC)c2c1=O
23 | 265 nM |  | CCCCc1c(-c2ccc(O)c(O)c2)oc2cc(OC)c(OC)c(=O)c-2c1O
24 | 88 nM |  | CCCCCCOc1c(-c2ccc(O)c(O)c2)oc2c(OC)c(OC)cc(OC)c2c1=O
25 | 770 nM |  | CCCCCCOc1cc(OC)c(OC)c2oc(-c3ccc(O)c(O)c3)c(O)c(=O)c12
26 |  | 500 nM | CCCCCCCCCCCCCCc1c(-c2ccc(O)c(O)c2)oc2c(OC)c(OC)cc(O)c2c1=O
27 | 870 nM |  | CCCCCCCCCCCCCCc1c(-c2ccc(O)c(O)c2)oc2cc(OC)c(OC)c(=O)c-2c1O
28 | 110 nM |  | CCCCCCc1c(-c2ccc(O)c(O)c2)oc2cc(OC)c(OC)c(=O)c-2c1O
